Measurements reported in patent publication US6838436B1, “Inhibitors of proteasomal activity for stimulating bone growth” (Osteoscreen Inc., priority 1998, dated 2005).
Where two headings read alike, the source gives them in different places. Where a SMILES comes first, the peptide text is derived from it. [ ]: non-standard residue; d: D form. Nle = CCCC[C@H](N)C(=O)O

What was measured:
neonatal mouse calvaria = assay: Neonatal mouse calvaria assay (in vitro / ex vivo) for bone formation; type: cell-based, ICR Swiss white mouse; details: for EC50: Mus musculus, read-out: Bone Formation (ED50-μM)
Experimental: An assay for bone resorption or bone formation is similar to that described by Gowen M. & Mundy G., J Immunol (1986) 136:2478-82. Briefly, four days after birth, the front and parietal bones of ICR Swiss white mouse pups are removed by microdissection and split along the sagittal suture. In an assay for resorption, the bones are incubated in BGJb medium (Irvine Scientific, Santa Ana, Calif.) plus 0.02% (or lower concentration) β-methylcyclodextrin, wherein the medium also contains test or control substances. The medium used when the assay is conducted to assess bone formation is Fitton and Jackson Modified BGJ Medium (Sigma) supplemented with 6 μg/ml insulin, 6 μg/ml transferrin, 6 ng/ml selenous acid, calcium and phosphate concentrations of 1.25 and 3.0 mM, respectively, and ascorbic acid to a concentration of 100 μg/ml is added every two days. The incubation is conducted at 37° C. in a humidified atmosphere of 5% CO2 and 95% air for 96 hours.
Following this, the bones are removed from the incubation media and fixed in 10% buffered formalin for 24-48 hours, decalcified in 14% EDTA for 1 week, processed through graded alcohols; and embedded in paraffin wax. Three […] sections of the calvaria are prepared. Representative sections are selected for histomorphometric assessment of bone formation or bone resorption. Bone changes are measured on sections cut 200 μm apart. Osteoblasts and osteoclasts are identified by their distinctive morphology.
Selected compounds and appropriate controls were assayed in vitro (ex vivo) for bone formation activity (described above in “Techniques for Neonatal Mouse Calvaria Assay (in vitro)). Histomorphometrical assessments of ex vivo calvaria were carried out using an OsteoMetrics bone morphometry measurement program, according to the manufacturer's instructions. Measurements were determined using either a 10- or 20-fold objective with a standard point counting eyepiece graticule.
New bone formation was determined (using a 10× objective) by measuring the new bone area formed in one field in 3 representative sections of each bone (4 bones per group). Each measurement was carried out ½ field distance from the end of the suture. Both total bone and old bone area were measured. Data were expressed as new bone area in μm^2.
Osteoblast numbers are determined by point counting. The number of osteoblast cells lining the bone surface on both sides of the bone are counted in one field using a 20× objective. Data are expressed as osteoblast numbers/mm of bone surface. […]

[1] = test system: hair follicles of skin explants; assay: Cultured skin explants from 5 day old mice, hair follicle diameter and elongation (Example 11); type: cell-based, C3H/HeS1c mice; details: 10 μM; 72 hours
Experimental: Cultured skin explants from 5 day old mice cultured for 72 hours were treated with proteasome inhibitors, non-proteasomal proteases and non-proteasomal inhibitors of NF-κB and effects on hair follicle diameter and follicle elongation were determined according to the method of Kamiya, T., et al., J Derm Sci (1998) 17:54-60. Skin slices from the dorsal skin of 5 day old C3H/HeS1c mice were cultured in 1 ml of αMEM and 0.1% BSA for 72 hours and then assessed for changes in hair follicle diameter and hair elongation under an inverted microscope, using image analysis. […] Thus, the chymotrypsin-like activity of the proteasome is the catalytic component of the proteasome that is responsible for the effects of these compounds on hair follicle differentiation and hair growth. Only proteasome inhibitors had discernable effects on these parameters.

mouse BMP2 promoter = assay: High throughput screen (ABA assay): BMP2 promoter-luciferase reporter in 2T3-BMP-2-LUC osteoblast cells; type: cell-based; details: for EC50: Mus musculus, Osteoblast, read-out: Luciferase Activity (ED50-μM)
Source text: 1995, the entire contents of which are incorporated herein by reference. This assay is also described as a portion of a study of immortalized murine osteoblasts (derived from a mouse expressing a transgene composed of a BMP2 promoter driving expression of T-antigen) in Ghosh-Choudhery, N., et al., Endocrinology (1996) 137:331-39. In this study, the immortalized cells were stably transfected with a plasmid containing a luciferase reporter gene driven by a mouse BMP2 promoter (−2736/114 bp), and responded in a dose-dependent manner to recombinant human BMP2.
Briefly, the assay utilizes cells transformed permanently or transiently with constructs in which the promoter of a bone morphogenetic protein, specifically BMP2 or BMP4, is coupled to a reporter gene, typically luciferase. These transformed cells are then evaluated for the production of the reporter gene product; compounds that activate the BMP promoter will drive production of the reporter protein, which can be readily assayed. Many thousands of compounds have been subjected to this rapid screening technique, and only a very small percentage are able to elicit a level of expression of reporter gene 5-fold greater than that produced by vehicle. […] The active compounds (“BMP promoter-active compounds” or “active compounds”) are useful in promoting bone or cartilage growth, and thus in the treatment of vertebrates in need of bone or cartilage growth.
Thousands of compounds have been tested in the assay system set forth in U.S. Ser. No. 08/458,434, filed 2 Jun. 1995, and incorporated herein by reference. […] In this screen, the standard positive control was the compound 59-0008 (also denoted “OS8”), which is of the formula: [drawing 22]
In more detail, the 2T3-BMP-2-LUC cells, a stably transformed osteoblast cell line described in Ghosh-Choudhury et al. Endocrinology (1996) 137:331-39, referenced above, was employed. The cells were cultured using α-MEM, 10% FCS with 1% penicillin/streptomycin and 1% glutamine (“plating medium”), and were split 1:5 once per week. For the assay, the cells were resuspended in a plating medium containing 4% FCS, plated in microtiter plates at a concentration of 5×10^3 cells (in 50 μl)/well, and incubated for 24 hours at 37° C. in 5% CO2. To initiate the assay, 50 μl of the test compound or the control in DMSO was added at 2× concentration to each well, so that the final volume was 100 μl. The final serum concentration was 2% FCS, and the final DMSO concentration was 1%. Compound 59-0008 (10 μM) was used as a positive control.
The treated cells were incubated for 24 hours at 37° C. and 5% CO2. The medium was then removed, and the cells were rinsed three times with PBS. After removal of excess PBS, 25 μl of 1× cell culture lysing reagent (Promega #E153A) was added to each well and incubated for at least ten minutes. Optionally, the plates/samples could be frozen at this point. To each well was added 50 μl of luciferase substrate (Promega #E152A; 10 ml Promega luciferase assay buffer per 7 mg Promega luciferase assay substrate). Luminescence was measured on an automated 96-well luminometer, and was expressed as either picograms of luciferase activity per well or as picograms of luciferase activity per microgram of protein.
Accordingly, other tested compounds can be evaluated at various concentrations, and the results compared to the results obtained for 59-0008 at 10 μM (which value would be normalized to 100). Alternatively, the reactivity of a compound to be tested can be compared directly to a negative control containing no compound.

proteasomal activity = details: cited from earlier work
hair follicles = assay: Induction of anagen in hair follicles in vivo (Example 12); set-up: species or system C57 black mice
Experimental: Inhibitors of the proteasomal chymotrypsin-like activity were treated for their capacity to induce transit of hair follicles into anagen in vivo in C57 black mice eight weeks of age.

[2] = target: T1, 20S thermophila proteasome (Methanosarcina thermophila, UniProt Q9P992); assay: biochemical
T1 construct: purchased CalBiochem, San Diego, Calif
T1 sequence (Q9P992 10-210): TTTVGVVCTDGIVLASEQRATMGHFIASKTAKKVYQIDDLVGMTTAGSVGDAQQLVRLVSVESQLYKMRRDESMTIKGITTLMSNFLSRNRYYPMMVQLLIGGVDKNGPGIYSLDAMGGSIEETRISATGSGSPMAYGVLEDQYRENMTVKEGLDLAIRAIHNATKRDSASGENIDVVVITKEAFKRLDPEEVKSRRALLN
T1 sequence (Q59565 1-247 partner): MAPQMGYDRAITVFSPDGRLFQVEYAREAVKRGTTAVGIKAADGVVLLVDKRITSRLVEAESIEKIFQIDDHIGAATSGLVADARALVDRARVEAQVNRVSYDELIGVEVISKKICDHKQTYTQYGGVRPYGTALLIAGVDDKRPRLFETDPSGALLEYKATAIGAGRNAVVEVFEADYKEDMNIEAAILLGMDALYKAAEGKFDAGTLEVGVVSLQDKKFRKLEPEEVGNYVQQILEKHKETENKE
Experimental: The assay involves incubating the potential inhibitor with 20S thermophila proteasomes which, in purified form, are commercially available, with a fluorogenic peptide substrate. The presence of an inhibitor will reduce the amount of fluorescence generated by the action of the proteasome fraction on the fluorogenic peptide. This assay is described in further detail in Coux, O., et al., N Rev Biochem (1996) 65:801; Adams, J., et al., Cancer Res (1999) 59:2615; and Craiu, A., et al., J Biol Chem (1997) 272:13437. Further reports are set forth in Hilt, W., et al., Trans Biochem Sci (1996) 21:96; Peters, J., Trends Biochem Sci (1994) 19:377; Maupin-Furlow, J. A., et al., J Biol Chem (1995) 270:28617; and Jensen, T. J., et al., Cell (1995) 83:129. Fluorogenic substrates and purified proteasomes are available, for example, from CalBiochem, San Diego, Calif.
Purified 20S thermophila proteasomes and the fluorogenic peptide substrate Suc-Leu-Leu-Val-Tyr-AMC (SEQ ID NO:3) are available from CalBiochem, San Diego, Calif. Briefly, serial dilutions of the inhibitor to be tested were mixed with proteasome solution at a concentration of proteasome of 0.01 mg/ml. After 30 min incubation at 37° C., substrate solution at a final concentration of 25-30 μg/ml was added and the mixture incubated at 37° C. and then read at 15 min, 30 min, and 60 min in a Fluoroscan instrument. The percentage diminution in fluorescence in the presence as compared to the absence of inhibitor is then calculated.

[3] = read-out: Proteasome Activity (ED50-μM)

CC[C@H](CO)Nc1nc(NCc2ccccc2)c2ncn(C(C)C)c2n1 [roscovitine]
new bone formation in the in vitro calvarial assay (neonatal mouse calvaria): appeared negative
effect on follicle growth [1]: did not significantly affect follicle growth
response in the high throughput luciferase screen (mouse BMP2 promoter): do not give promising responses

CC(=O)CCCCn1c(=O)c2c(ncn2C)n(C)c1=O [PTX, pentoxyfilline]
lowest concentration enhancing new bone formation (as low as) (neonatal mouse calvaria): 0.1 μm
new bone formation in the in vitro calvarial assay (neonatal mouse calvaria): active
increase of new bone area (neonatal mouse calvaria; 100 μm): ~3 times that of control
enhancement of new bone area over control (neonatal mouse calvaria; concentration of 10 μm): over 100%

CC[C@H](C)C(=O)O[C@H]1C[C@@H](C)C=C2C=C[C@H](C)[C@H](CC[C@@H]3C[C@@H](O)CC(=O)O3)[C@H]21 [lovastatin]
effects on proteasomal activity (proteasomal activity): no effects on proteasomal activity
effect on hair follicles (hair follicles; injected locally into the subcutaneous tissue in sufficient concentrations to cause local periosteal bone formation): had no effect on hair follicles

C=C(C)[C@]12C[C@@H](C)[C@@]34O[C@](Cc5ccccc5)(O[C@@H]1[C@@H]3C=C(COC(=O)Cc1ccc(O)c(OC)c1)C[C@]1(O)C(=O)C(C)=C[C@@H]41)O2 [resiniferatoxin]
activity in the ABA assay compared with proteasome inhibitors (mouse BMP2 promoter): less active

c1ccc(N=NC2=NNc3ccccc3S2)cc1 [59-0008, 3-phenylazo-1H-4,1,2-benzothiadiazine]
concentration of maximal reactivity (mouse BMP2 promoter): 3 to 10 µM

CN1C(=O)C23CC4=CC=C[C@H](O)C4N2C(=O)C1(CO)SS3 (stereo partly shown) [Gliotoxin]
new bone formation in the in vitro calvarial assay (neonatal mouse calvaria): did demonstrate the ability to stimulate bone growth
EC50 (neonatal mouse calvaria): 10 µM
response in the high throughput luciferase screen (mouse BMP2 promoter): do not give promising responses

CC(C)C[C@H](NC(=O)[C@H](CC(C)C)NC(=O)[C@H](CC(C)C)NC(=O)OCc1ccccc1)B(O)O [MG262]
EC50 [2, 3]: 0.07 µM
EC50 (neonatal mouse calvaria; calvarial assay in vitro): 0.1 µM
EC50 (mouse BMP2 promoter): 0.1 µM

O=C(NC1=CC(=O)c2ccccc2C1=O)c1ccccc1 [PPM-18, 2-benzoylamino-1,4-naphthoguinone]
effects on proteasomal activity (proteasomal activity): no effects on proteasomal activity
effect on hair follicles (hair follicles; dose not given): had no effect on hair follicles

COc1cc(/C=C/C(=O)CC(=O)/C=C/c2ccc(O)c(OC)c2)ccc1O [curcumin]
activity in the ABA assay compared with proteasome inhibitors (mouse BMP2 promoter): less active

CSCCC(C=O)NC(=O)C(CC(C)C)NC(=O)C(CC(C)C)NC(C)=O (stereo not drawn) [N-Acetyl-Leu-Leu-Meth-CHO, N-Acetyl-Leu-Leu-Met-CHO] (Ac-Leu-Leu-Met-aldehyde; configuration not given here)
EC50 [2]: 4 µM

S=C(S)N1CCCC1 [PDTC, 1-pyrrolidinecarbodithioic acid]
effects on proteasomal activity (proteasomal activity): no effects on proteasomal activity
new bone formation in the in vitro calvarial assay (neonatal mouse calvaria): appeared negative
effect on follicle growth [1]: did not significantly affect follicle growth
effect on hair follicles (hair follicles; dose not given): had no effect on hair follicles
response in the high throughput luciferase screen (mouse BMP2 promoter): do not give promising responses

COc1cc(CNC(=O)CCCC/C=C/C(C)C)ccc1O [Capsaicin]
EC50 [2]: 30 µM
new bone formation in the in vitro calvarial assay (neonatal mouse calvaria): appeared negative
activity in the ABA assay compared with proteasome inhibitors (mouse BMP2 promoter): less active
response in the high throughput luciferase screen (mouse BMP2 promoter): do not give promising responses

CCCC[C@@H](C=O)NC(=O)[C@H](CC(C)C)NC(=O)[C@H](CC(C)C)NC(C)=O [ALLN, N-Acetyl-Leu-Leu-Nle-CHO] (Ac-Leu-Leu-[Nle]-aldehyde)
effects on proteasomal activity (proteasomal activity): no effects on proteasomal activity
EC50 [2, 3]: 1.5 µM
effect on hair follicles (hair follicles; dose not given): had no effect on hair follicles
EC50 (mouse BMP2 promoter): 10 µM
